Results on 3 compounds are retold here after patent publication US20220096461A1, “LIQUID ORAL DOSAGE FORMULATIONS OF METHYLNALTREXONE” (Bausch Health Ireland Limited, priority 2019, published 2022).

Series [1] can be described thus: Partition coefficient between octanol and water (Log P). The following applies: n-octanol/water; ratios 9:1, 7:3, 1:1; HPLC. It is filed as physicochemical. Here is the method:
To determine the partition coefficient of each ion pair, about 15 mg of each ion pair was dissolved in separate 100 ml portions of n-octanol (previously saturated with water). Three n-octanol solutions were prepared for each ion pair. Mixtures having three different volumetric ratios of n-octanol to water (9:1, 7:3, and 1:1) were prepared by adding water and agitating the mixtures on a bench top agitator for two hours. After agitation, samples from each mixture were centrifuged for 10 min at 10,000 rpm to separate aqueous and n-octanol phase. The concentration of methylnaltrexone in the aqueous and n-octanol phases was determined by HPLC. Log P was calculated from the ratio of the drug concentration in n-octanol to the drug concentration in water.

The subject of series [2] is opioid-induced constipation. The note with it: 12 mg subcutaneous injection; patients with chronic non-cancer pain; cited from earlier work.

On to Methylnaltrexone - Lauryl Sulfate, for which, in series [1], the LogP (usually the decadic logarithm of the partition coefficient of the neutral form, usually between octanol and water) is 1.23.

For `C[N@+]1(CC2CC2)CC[C@]23c4c5ccc(O)c4O[C@H]2C(=O)CC[C@@]3(O)[C@H]1C5` [methylnaltrexone, (R)—N-methylnaltrexone], the “Patients with three or more spontaneous bowel movements each week for four weeks” value in series [2] was 59%. Regarding `CCCCC(CC)COC(=O)CC(C(=O)OCC(CC)CCCC)S(=O)(=O)[O-].C[N+]1(CC2CC2)CCC23c4c5ccc(O)c4OC2C(=O)CCC3(O)C1C5` (stereo not drawn) [Methylnaltrexone - Docusate], in series [1], the log partition coefficient (LogP) is on record as 1.67.
